# Measurements: patent US9453014B2, “Cyclic amide derivatives as inhibitors of 11-β-hydroxysteroid dehydrogenase and uses thereof” (CONNEXIOS LIFE SCIENCES PVT. LTD., priority 2011, dated 2016)
# Biological target: T1, human full length HSD11 β 1 (Homo sapiens, UniProt P28845)
# T1 construct: transient expression of human full length HSD11 β 1 expression vector; host or cells: CHO cells (transient transfection)
# Experiment: In Vitro HSD11β1 Inhibition Assay
# Format: cell-based
# Conditions: CHO cells transiently expressing human HSD11β1; 200 nM cortisone+500 uM NADPH overnight; cortisone to cortisol by LC/MS-MS; read-out: 11βHSD1 (IC50)
# Summary of the method: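 CHO cells transiently transfected with human full-length HSD11β1 were re-seeded after 24 h and, 24 h later, incubated overnight with 200 nM cortisone plus 500 uM NADPH and inhibitor. Cortisone-to-cortisol conversion was measured by LC/MS-MS. IC50 from an 8-point log concentration–inhibition curve.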
# T1 sequence (P28845 whole entry): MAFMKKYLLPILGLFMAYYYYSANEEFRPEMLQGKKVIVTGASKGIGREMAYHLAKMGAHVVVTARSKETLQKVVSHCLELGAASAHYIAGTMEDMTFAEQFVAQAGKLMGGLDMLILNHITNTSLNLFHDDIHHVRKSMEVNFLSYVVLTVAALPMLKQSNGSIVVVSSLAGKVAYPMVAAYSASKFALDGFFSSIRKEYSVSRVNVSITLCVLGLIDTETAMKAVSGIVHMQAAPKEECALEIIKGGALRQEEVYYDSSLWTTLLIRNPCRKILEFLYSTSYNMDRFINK
row,Compound,IC50 [nM]
1,"CC(C)(c1c[nH]c2ccccc12)C(C#N)C(=O)N1CCCC2CCCCC21 (stereo not drawn) [Example 110, 3-(1H-indol-3-yl)-3-methyl-2-(octahydroquinolin-1(2H)-ylcarbonyl)butanenitrile]",> 250
2,"O=C(COc1c[nH]c2ccccc12)N1CCCC2CCCCC21 (stereo not drawn) [Example 99, 2-(1H-indol-3-yloxy)-1-(octahydroquinolin-1(2H)-yl)ethanone]",> 250
3,"CC(CC(=O)N1CCCC2C(C(=O)O)CCCC21)c1c[nH]c2ccc(F)c(C3CC3)c12 (stereo not drawn) [Compound 220, 1-[3-(4-cyclopropyl-5-fluoro-1H-indol-3-yl)butanoyl]decahydroquinoline-5-carboxylic acid]",< 100
4,"O=C(CC(=O)N1CCCC2CCCCC21)c1c[nH]c2ccc(Cl)cc12 (stereo not drawn) [Compound 19, 1-(5-chloro-1H-indol-3-yl)-3-(octahydroquinolin-1(2H)-yl)propane-1,3-dione]",> 250
5,"CC(CC(=O)N1CCC(C(=O)O)C2CCCCC21)c1c[nH]c2ncccc12 (stereo not drawn) [Example 165, 1-[3-(1H-pyrrolo[2,3-b]pyridin-3-yl)butanoyl]decahydroquinoline-4-carboxylic acid]",> 250
6,"COC(=O)C1CCN(C(=O)CC(c2c[nH]c3ccccc23)C(C)C)C2CCCCC12 (stereo not drawn) [Example 101, methyl 1-[3-(1H-indol-3-yl)-4-methylpentanoyl]decahydroquinoline-4-carboxylate]",> 250
7,"CC(CC(=O)N1CCCC2C(C(=O)O)CCCC21)c1c[nH]c2cccc(-c3ncccc3F)c12 (stereo not drawn) [Compound 262, 1-{3-[4-(3-fluoropyridin-2-yl)-1H-indol-3-yl]butanoyl}decahydroquinoline-5-carboxylic acid]",> 250
8,"COC(=O)C1CCN(C(=O)CCc2c[nH]c3ccccc23)C2CCCCC12 (stereo not drawn) [Compound 49, methyl 1-[3-(1H-indol-3-yl)propanoyl]decahydroquinoline-4-carboxylate]",> 250
9,"CC(C)C(CC(=O)N1CCC(C(=O)O)C2CCCCC21)c1c[nH]c2cc(F)ccc12 (single isomer, unassigned) [Example 178, 1-[3-(6-fluoro-1H-indol-3-yl)-4-methylpentanoyl]decahydroquinoline-4-carboxylic acid]",> 250
10,"O=C(CC(O)(c1c[nH]c2ccccc12)C(F)(F)F)N1CCCC2CCCCC21 (stereo not drawn) [Example 108, 4,4,4-trifluoro-3-hydroxy-3-(1H-indol-3-yl)-1-(octahydroquinolin-1(2H)-yl)butan-1-one]",> 250
11,"O=C(CCc1c[nH]c2ccc(Cl)cc12)N1CCCC2CCCCC21 (stereo not drawn) [Compound 6, 3-(5-chloro-1H-indol-3-yl)-1-(octahydroquinolin-1(2H)-yl)propan-1-one]",200 to 250
12,"O=C(O)C1CCN(C(=O)CC(c2ccccc2)c2nc3ccccc3s2)C2CCCCC12 (stereo not drawn) [Example 152, 1-[3-(1,3-benzothiazol-2-yl)-3-phenylpropanoyl]decahydroquinoline-4-carboxylic acid]",> 250
13,"CC(CC(=O)N1CCCC2C(C(=O)O)CCCC21)c1cn(C)c2cccc(C3CC3)c12 (stereo not drawn) [Compound 204, 1-[3-(4-cyclopropyl-1-methyl-1H-indol-3-yl)butanoyl]decahydroquinoline-5-carboxylic acid]",< 100
14,"CC(CC(=O)N1CCCC2C(C(=O)O)CCCC21)c1c[nH]c2cccc(-c3cccc(F)c3)c12 (stereo not drawn) [Compound 259, 1-{3-[4-(3-fluorophenyl)-1H-indol-3-yl]butanoyl}decahydroquinoline-5-carboxylic acid]",150 to 200
15,"O=C(O)C1CCN(C(=O)CC(c2ccccc2)c2c[nH]c3cccc(Cl)c23)C2CCCCC12 (stereo not drawn) [Example 155, 1-[3-(4-chloro-1H-indol-3-yl)-3-phenylpropanoyl]decahydroquinoline-4-carboxylic acid]",> 250
16,"CC(C)C(CC(=O)N1CCOC2CCCCC21)c1cn(C)c2ccccc12 (stereo not drawn) [Example 134, 4-methyl-3-(1-methyl-1H-indol-3-yl)-1-(octahydro-4H-1,4-benzoxazin-4-yl)pentan-1-one]",> 250
17,"CC(C)Oc1cccc2c1c(C(C)CC(=O)N1CCCC3C(C(=O)O)CCCC31)cn2C (stereo not drawn) [Compound 208, 1-{3-[1-methyl-4-(propan-2-yloxy)-1H-indol-3-yl]butanoyl}decahydroquinoline-5-carboxylic acid]",100 to 150
18,"Cc1cccc2c1c(C(C)CC(=O)N1CCCC3C(C(=O)O)CCCC31)cn2C (stereo not drawn) [Compound 207, 1-[3-(1,4-dimethyl-1H-indol-3-yl)butanoyl]decahydroquinoline-5-carboxylic acid]",> 250
19,"CC(CC(=O)N1CCCC2CCCCC21)c1c[nH]c2cccc(F)c12 (stereo not drawn) [Example 121, 3-(4-fluoro-1H-indol-3-yl)-1-(octahydroquinolin-1(2H)-yl)butan-1-one]",< 100
20,"CC(C)C(CC(=O)N1CCCC2CCCCC21)c1c[nH]c2ccccc12 (single isomer, unassigned) [Example 117, 3-(1H-indol-3-yl)-4-methyl-1-(octahydroquinolin-1(2H)-yl)pentan-1-one]",< 100

row,Compound,IC50 [nM]
1,"Cc1ccc2[nH]cc(C(C)CC(=O)N3CCCC4C(C(=O)O)CCCC43)c2c1Cl (stereo not drawn) [Compound 203, 1-[3-(4-chloro-5-methyl-1H-indol-3-yl)butanoyl]decahydroquinoline-5-carboxylic acid]",> 250
2,"CC(CC(=O)N1C(C)CCC2C(C(=O)O)CCCC21)c1c[nH]c2cccc(Cl)c12 (stereo not drawn) [Compound 234, 1-[3-(4-chloro-1H-indol-3-yl)butanoyl]-2-methyldecahydroquinoline-5-carboxylic acid]",> 250
3,"O=C(O)C1CCN(C(=O)CC(c2ccccc2)n2nnc3ccccc32)C2CCCCC12 (single isomer, unassigned) [Example 182, 1-[3-(1H-benzotriazol-1-yl)-3-phenylpropanoyl]decahydroquinoline-4-carboxylic acid]",> 250
4,"O=C(CCc1cc2ccccc2[nH]1)N1CCCC2CCCCC21 (stereo not drawn) [Compound 14, 3-(1H-indol-2-yl)-1-(octahydroquinolin-1(2H)-yl)propan-1-one]",> 250
5,"Cc1cccc2c1c(CCC(=O)N1CCOC3CCCCC31)cn2C (stereo not drawn) [Compound 60, 3-(1,4-dimethyl-1H-indol-3-yl)-1-(octahydro-4H-1,4-benzoxazin-4-yl)propan-1-one]",< 100
6,"O=C(CCc1c[nH]c2ccccc12)N1CCC2CCCCC2C1 (stereo not drawn) [Compound 21, 3-(1H-indol-3-yl)-1-(octahydroisoquinolin-2(1H)-yl)propan-1-one]",> 250
7,"CC(C)C(CC(=O)N1CCCC2(C)CCCCC12)c1c[nH]c2cccc(F)c12 (single isomer, unassigned) [Example 116, 3-(4-fluoro-1H-indol-3-yl)-4-methyl-1-(4a-methyloctahydroquinolin-1(2H)-yl)pentan-1-one]",> 250
8,"CC(CC(=O)N1CCCC2CC(C(=O)O)CCC21)c1c[nH]c2cccc(C3CC3)c12 (stereo not drawn) [Compound 191, 1-[3-(4-cyclopropyl-1H-Indol-3-yl)butanoyl]decahydroquinoline-6-carboxylic acid]",100 to 150
9,"O=C(CCc1cn(S(=O)(=O)c2ccccc2)c2ncccc12)N1CCCC2CCCCC21 (stereo not drawn) [Example 85, 1-(octahydroquinolin-1(2H)-yl)-3-[1-(phenylsulfonyl)-1H-pyrrolo[2,3-b]pyridin-3-yl]propan-1-one]",> 250
10,"Cc1cccc2[nH]cc(CCC(=O)N3CCC(=O)C4CCCCC43)c12 (stereo not drawn) [Compound 32, 1-[3-(4-methyl-1H-indol-3-yl)propanoyl]octahydroquinolin-4(1H)-one]",> 250
11,"O=C(O)C1CCN(C(=O)CC(c2ccccc2)c2c[nH]c3cc(F)ccc23)C2CCCCC12 (single isomer, unassigned) [Example 160, 1-[3-(6-fluoro-1H-indol-3-yl)-3-phenylpropanoyl]decahydroquinoline-4-carboxylic acid]",> 250
12,"CC12CCCCC1N(C(=O)CCn1nnc3ccccc31)CCC2 (stereo not drawn) [Example 90, 3-(1H-benzotriazol-1-yl)-1-(4a-methyloctahydroquinolin-1(2H)-yl)propan-1-one]",100 to 150
13,"Cc1cccc2c1c(CCC(=O)N1CCCC3CCCCC31)cn2C (stereo not drawn) [Compound 27, 3-(1,4-dimethyl-1H-indol-3-yl)-1-(octahydroquinolin-1(2H)-yl)propan-1-one]",< 100
14,"CC(CC(=O)N1CCCC2CCCCC21)c1c[nH]c2ncccc12 (stereo not drawn) [Example 143, 1-(octahydroquinolin-1(2H)-yl)-3-(1H-pyrrolo[2,3-b]pyridin-3-yl)butan-1-one]",< 100
15,"CC(C)C(CC(=O)N1CCC(C(=O)O)C2CCCCC21)c1c[nH]c2cc(F)ccc12 (single isomer, unassigned) [Example 177, 1-[3-(6-fluoro-1H-indol-3-yl)-4-methylpentanoyl]decahydroquinoline-4-carboxylic acid]",150 to 200
16,"O=C(O)C1CCN(C(=O)CC(c2ccc(F)cc2)c2c[nH]c3cccc(F)c23)C2CCCCC12 (stereo not drawn) [Example 157, 1-[3-(4-fluoro-1H-indol-3-yl)-3-(4-fluorophenyl)propanoyl]decahydroquinoline-4-carboxylic acid]",< 100
17,"CC(CC(=O)N1C(C)CCC2CCCCC21)c1c[nH]c2ccc(F)cc12 (stereo not drawn) [Example 92, 3-(5-fluoro-1H-indol-3-yl)-1-(2-methyloctahydroquinolin-1(2H)-yl)butan-1-one]",100 to 150
18,"CC(CC(=O)N1CCOC2CCCCC21)c1c[nH]c2cccc(F)c12 (single isomer, unassigned) [Example 137, 3-(4-fluoro-1H-indol-3-yl)-1-(octahydro-4H-1,4-benzoxazin-4-yl)butan-1-one]",100 to 150
19,"O=C(CCc1c[nH]c2ccccc12)N1CCC2CCCCC21 (stereo not drawn) [Compound 41, 3-(1H-indol-3-yl)-1-(octahydro-1H-Indol-1-yl)propan-1-one]",100 to 150
